Measured values published in PMC5327470, “Discovery and Optimization of Novel 5-Indolyl-7-arylimidazo[1,2-a]pyridine-8-carbonitrile Derivatives as Potent Antitubulin Agents Targeting Colchicine-binding Site” (Scientific Reports, 2017).

Assays:
[1] = test system: HT-29 (human colon cancer); assay: MTT antiproliferative assay, HT-29; type: cell-based; settings: for IC50: Homo sapiens, HT-29, MTT, 72 h, mean ± SD, read-out: IC50 (μM) ±SD HT29
Method: (§1) To evaluate the antiproliferative activity, all synthesized derivatives (5a–5v and 7a–7h) were investigated for their activity in vitro against a panel of cancer cell lines including HT-29 (human colon cancer), H460 (human lung cancer), A549 (human lung carcinoma), MKN-45 (human gastric cancer) and SMMC-7721 (human liver cancer) by MTT assay. CA-4 and Crolibulin were served as positive control, and the results expressed as half-maximal inhibitory concentration (IC50). IC50 values are the concentrations that cause 50% inhibition of cancer cell growth (μM). Data represent the mean values ± standard deviation (SD) of independent experiments performed in triplicate.
(§2) Cell lines and culture conditions.The human colon carcinoma cell line HT-29, the human pulmonary carcinoma cell line A549, the human gastric carcinoma cell line MKN-45, the human breast cancer cell line MDA-MB-231 and human heptocarcinoma cellline SMMC-7721were cultured in RPMI-1640 mediumcontaining 10% FBS, 100 U/mL streptomycin and 100 U/mL penicillinat 37 °C in humidified atmosphere with 5% CO2. All of the cells were purchased from the American Type Culture Collection (ATCC, Manassas, VA).
(§3) The antiproliferative activities in vitro of Crolibulin and all the target compounds were determined by an MTT assay. Briefly, cells were seeded into 96-well plates at a density of 1–3 × 10^4/well (depends on the cell growth rate). 24 h later, triplicate wells were treated with media and the agents. After 72 h ofincubation at 37 °C in 5% CO2, the drug containing medium wasremoved and replaced by 100 mL of fresh medium with 5 mg/mLMTT solution. After 4 h of incubation, the medium with MTT was removed, and […] of DMSO was added to each well. The plates were gently agitated until the purple formazan crystals were dissolved, and the OD490 was determinedusing a microplate reader (MK3, Thermo, Germany). The data were calculated and plotted as the percent viability compared to the control. The 50% inhibitory concentration (IC50) was defined as theconcentration that reduced the absorbance of the untreated wells by 50% of the vehicle in the MTT assay.

[2] = test system: A549 (human lung carcinoma); assay: MTT antiproliferative assay, A549; type: cell-based; settings: 72 h, mean ± SD
Method: as §1, §2, §3

[3] = test system: HT-29, H460, A549, MKN-45 and SMMC-7721 cell lines; assay: MTT antiproliferative assay, panel of five cancer cell lines; type: cell-based, human; settings: ratio of IC50 values
Method: IC50 values are the concentrations that cause 50% inhibition of cancer cell growth (μM). Data represent the mean values ± standard deviation (SD) of independent experiments performed in triplicate.
as §3

[4] = test system: MKN-45 (human gastric cancer); assay: MTT antiproliferative assay, MKN-45; type: cell-based; settings: 72 h, mean ± SD, read-out: IC50 (μM) ±SD MKN45
Method: as §1, §2, §3

[5] = test system: SMMC-7721 (human liver cancer); assay: MTT antiproliferative assay, SMMC-7721; type: cell-based; settings: 72 h, mean ± SD
Method: Data represent the mean values ± standard deviation (SD) of independent experiments performed in triplicate.
All of the cells were purchased from the American Type Culture Collection (ATCC, Manassas, VA).
as §3, with “After 72 h ofincubation at 37 °C in 5% CO2, the drug containing medium wasremoved and replaced by 100 mL of fresh medium with 5 mg/mLMTT solution.” left out, “control.” for “control. The 50% inhibitory concentration (IC50) was defined as theconcentration that reduced the absorbance of the untreated wells by 50% of the vehicle in the MTT assay.”

H460 (human lung cancer) = assay: MTT antiproliferative assay, H460; type: cell-based; settings: MTT, 72 h, mean ± SD
Method: as §1, §3

[6] = test system: human fetal hepatocyte line L02; assay: MTT assay on normal cell line L02; type: cell-based; settings: non-cancer cell line
Method: The drug candidate potency depends not only on its cytotoxicity in malignant cells, but also on its relative lack of toxicity toward normal cells.
as §3

[7] = test system: microtubules in HT-29 cells; assay: Immunofluorescence staining of microtubule network; type: cell-based, human; settings: HT-29, 20 nM, 12 h, anti-α-tubulin immunostaining
Method: After incubation, cells were fixed, reacted with monoclonal anti-tubulin antibody at 4 °C overnight and then reacted with fluorescein isothiocyanate (FITC) conjugated secondary antibody, DAPI was used for nuclear counter-staining, the cellular microtubules were observed under fluorescence microscope (scale bar = 20 μm).
The HT-29 cells were seeded at 1 × 10^4 per well on a 24 wellplate and grown for 24 h. […] Cells in the control group were treated with culture medium. The control and treated cells were fixed with 4% formaldehydein PBS for 30 min at −20 °C, then washed twice with PBS and permeabilized with 0.1% (v/v) Triton X-100 in PBS for 5 min. Then, the cells were blocked with 3% bovine serum albumin(BSA) in PBS for 30 min. The primary α-tubulin antibody wasdiluted (1:100) with 2% BSA in PBS and incubated overnight at 4 °C. The cells were washed with PBS to remove unbound primaryantibody and then cells were incubated with FITC-conjugated antimousesecondary antibody, diluted (1:100) with 2% BSA in PBS, for 2 h at 37 °C. The cells were washed with PBS to remove unbound secondary antibody, nucleus was stained with 4,6-diamino-2-phenolindoldihydrochloride (DAPI) and then, immunofluorescencewas detected using a fluorescence microscope (Olympus,Tokyo, Japan).

N#Cc1c(-c2ccccc2F)cc(-c2c[nH]c3ccccc23)n2ccnc12 [5e, 7-(2-fluorophenyl)-5-(1H-indol-3-yl)imidazo[1,2-a]pyridine-8-carbonitrile]
IC50 [1]: 0.09 ± 0.01 µM | IC50 [2]: 5.67 ± 0.23 µM | melting point: 304.6 to 308.8 °C | fold increased potency over 5a (H), 5c (3-OMe) and 5d (4-OMe) [3]: at least 1.7 fold | IC50 [4]: 0.96 ± 0.06 µM | IC50 [5]: 26.2 ± 2.82 µM | IC50 (H460 (human lung cancer); Homo sapiens, NCI-H460, 72 h): 1.16 ± 0.12 µM

N#Cc1c(-c2ccccc2Cl)cc(-c2c[nH]c3ccccc23)n2ccnc12 [5f, 7-(2-chlorophenyl)-5-(1H-indol-3-yl)imidazo[1,2-a]pyridine-8-carbonitrile]
IC50 [1]: 0.07 ± 0.004 µM | IC50 [2]: 0.95 ± 0.07 µM | melting point: 296.7 to 300.1 °C | fold increased potency over 5a (H), 5c (3-OMe) and 5d (4-OMe) [3]: at least 1.7 fold | IC50 [4]: 0.38 ± 0.06 µM | IC50 [5]: 13.8 ± 2.23 µM | IC50 (H460 (human lung cancer); Homo sapiens, NCI-H460, 72 h): 0.18 ± 0.08 µM | effect on normal cell L02 [6]: negligible effects

COc1ccc(/C=C\c2cc(OC)c(OC)c(OC)c2)cc1O [CA-4, Combretastatin A-4, reference compound]
IC50 [1]: 0.05 ± 0.01 µM | IC50 [2]: 0.43 ± 0.053 µM | IC50 [4]: 0.11 ± 0.02 µM | effect on microtubule network [7]: cellular microtubule depolymerization | IC50 [5]: 1.92 ± 0.11 µM | IC50 (H460 (human lung cancer); Homo sapiens, NCI-H460): 0.08 ± 0.01 µM

CCNCc1cn2c(-c3c[nH]c4ccccc34)cc(-c3ccc(F)cc3Cl)c(C#N)c2n1 [7b, 7-(2-chloro-4-fluorophenyl)-2-((ethylamino)methyl)-5-(1H-indol-3-yl)imidazo[1,2-a]pyridine-8-carbonitrile]
IC50 [1]: 0.03 ± 0.003 µM | fold more active than CA-4 on HT-29 ([1]; ratio of IC50 values): ~1.7 fold | fold more active than Crolibulin on HT-29 cell ([1]; ratio of IC50 values): about 17 fold | IC50 [2]: 3.54 ± 0.41 µM | melting point: 170.7 to 172.6 °C | IC50 [4]: 20.5 ± 2.32 µM | IC50 [5]: 21.6 ± 3.16 µM | IC50 (H460 (human lung cancer); Homo sapiens, NCI-H460, 72 h): 0.96 ± 0.06 µM

N#Cc1c(-c2ccccc2Cl)cc(-c2c[nH]c3ccc(Br)cc23)n2ccnc12 [5t, 5-(5-bromo-1H-indol-3-yl)-7-(2-chlorophenyl)imidazo[1,2-a]pyridine-8-carbonitrile]
IC50 [1]: 0.58 ± 0.06 µM | IC50 [2]: > 100 µM | melting point: 302.2 to 306.8 °C | IC50 [4]: 56.8 ± 4.29 µM | IC50 [5]: > 100 µM | IC50 (H460 (human lung cancer); Homo sapiens, NCI-H460, 72 h): 80.7 ± 6.98 µM

N#Cc1c(-c2ccc(O)c(Br)c2)cc(-c2c[nH]c3ccccc23)n2ccnc12 [5l, 7-(3-bromo-4-hydroxyphenyl)-5-(1H-indol-3-yl)imidazo[1,2-a]pyridine-8-carbonitrile]
IC50 [1]: 0.92 ± 0.08 µM | IC50 [2]: > 100 µM | melting point: 309.2 to 312.3 °C | IC50 [4]: 10.7 ± 1.85 µM | IC50 [5]: 80.2 ± 7.54 µM | IC50 (H460 (human lung cancer); Homo sapiens, NCI-H460, 72 h): 1.07 ± 0.12 µM

N#Cc1c(-c2ccc(Br)cc2)cc(-c2c[nH]c3ccc(Br)cc23)n2ccnc12 [5u, 5-(5-bromo-1H-indol-3-yl)-7-(4-bromophenyl)imidazo[1,2-a]pyridine-8-carbonitrile]
IC50 [1]: 0.73 ± 0.09 µM | IC50 [2]: 21.4 ± 2.58 µM | melting point: 317.2 to 321.8 °C | IC50 [4]: 38.1 ± 4.42 µM | IC50 [5]: 79.3 ± 5.14 µM | IC50 (H460 (human lung cancer); Homo sapiens, NCI-H460, 72 h): 1.93 ± 0.33 µM

Cc1ccccc1-c1cc(-c2c[nH]c3ccccc23)n2ccnc2c1C#N [5b, 5-(1H-indol-3-yl)-7-(o-tolyl)imidazo[1,2-a]pyridine-8-carbonitrile]
IC50 [1]: 0.16 ± 0.04 µM | IC50 [2]: 0.23 ± 0.04 µM | melting point: 334.3 to 335.1 °C | IC50 [4]: 1.52 ± 0.15 µM | IC50 [5]: 0.82 ± 0.06 µM | IC50 (H460 (human lung cancer); Homo sapiens, NCI-H460, 72 h): 46.3 ± 5.26 µM | effect on normal cell L02 [6]: negligible effects

N#Cc1c(-c2ccc(Br)cc2)cc(-c2c[nH]c3ccccc23)n2ccnc12 [5h, 7-(4-bromophenyl)-5-(1H-indol-3-yl)imidazo[1,2-a]pyridine-8-carbonitrile]
IC50 [1]: 0.12 ± 0.02 µM | fold more potent than 5a on HT-29 cell ([1]; ratio of IC50 values): about 2.5 fold | IC50 [2]: 8.54 ± 0.93 µM | melting point: 307.8 to 309.5 °C | IC50 [4]: 2.76 ± 0.47 µM | IC50 [5]: 53.5 ± 7.76 µM | IC50 (H460 (human lung cancer); Homo sapiens, NCI-H460, 72 h): 1.16 µM | IC50 (H460 (human lung cancer)): 0.95 ± 0.03 µM

N#Cc1c(-c2ccccc2F)cc(-c2c[nH]c3ccc(Br)cc23)n2ccnc12 [5s, 5-(5-bromo-1H-indol-3-yl)-7-(2-fluorophenyl)imidazo[1,2-a]pyridine-8-carbonitrile]
IC50 [1]: 2.86 ± 0.38 µM | IC50 [2]: 67.3 ± 4.59 µM | melting point: 301.7 to 304.6 °C | IC50 [4]: 31.2 ± 5.79 µM | IC50 [5]: > 100 µM | IC50 (H460 (human lung cancer); Homo sapiens, NCI-H460, 72 h): 17.2 ± 1.34 µM

CC(C)NCc1cn2c(-c3c[nH]c4ccccc34)cc(-c3ccc(F)cc3Cl)c(C#N)c2n1 [7c, 7-(2-chloro-4-fluorophenyl)-5-(1H-indol-3-yl)-2-((isopropylamino)methyl)imidazo[1,2-a]pyridine-8-carbonitrile]
IC50 [1]: 0.33 ± 0.04 µM | IC50 [2]: 6.18 ± 0.71 µM | melting point: 222.2 to 225.3 °C | IC50 [4]: 22.4 ± 2.51 µM | IC50 [5]: 36.7 ± 4.92 µM | IC50 (H460 (human lung cancer); Homo sapiens, NCI-H460, 72 h): 0.96 ± 0.07 µM

CCN(CC)Cc1cn2c(-c3c[nH]c4ccccc34)cc(-c3ccc(F)cc3Cl)c(C#N)c2n1 [7e, 7-(2-chloro-4-fluorophenyl)-2-((diethylamino)methyl)-5-(1H-indol-3-yl)imidazo[1,2-a]pyridine-8-carbonitrile]
IC50 [1]: 0.21 ± 0.03 µM | IC50 [2]: 4.87 ± 0.38 µM | melting point: 181.2 to 184.5 °C | IC50 [4]: 13.8 ± 1.79 µM | IC50 [5]: 24.6 ± 2.73 µM | IC50 (H460 (human lung cancer); Homo sapiens, NCI-H460, 72 h): 0.67 ± 0.05 µM

N#Cc1c(-c2cccc(Br)c2)cc(-c2c[nH]c3ccccc23)n2ccnc12 [5g, 7-(3-bromophenyl)-5-(1H-indol-3-yl)imidazo[1,2-a]pyridine-8-carbonitrile]
IC50 [1]: > 100 µM | IC50 [2]: > 100 µM | melting point: 321.9 to 324.4 °C | IC50 [4]: 64 ± 7.14 µM | IC50 [5]: 79.2 ± 6.87 µM | IC50 (H460 (human lung cancer); Homo sapiens, NCI-H460, 72 h): 6.89 ± 0.67 µM
